{"source": "patent US11654198B2", "about": "“Application of combination of polyethylene glycol and local anesthetic in non-narcotic analgesia” (JENKEM TECHNOLOGY CO., LTD. (TIANJIN), priority 2016, dated 2023)", "key": {"SD rats [1]": {"test_system": "SD rats", "assay": "Hot plate paw withdrawal time, rat plantar incision model (Example 31)", "format": "in vivo", "method": "After SD rats inhale anesthesia (isoflurane), an incision of about 1 cm in length from the proximal end of the pelma to the toe is made: after the skin and fascia are cut, the plantar muscle is picked up with an ophthalmic forceps and cut longitudinally (maintaining the starting and ending point and attachment of muscles); pressing is carried out for hemostasis, physiological saline and test drugs are injected into the muscles of animal's legs, and then the pain threshold detection is performed by the hot plate method. Within 24 hours after the model is successful, the rats develop significant hyperalgesia. Qualified rats are randomly divided into 5 groups, 6 rats in each group, which are labeled as groups G1, G2, G3, G4 and G5, respectively. The plantar subcutaneous injection method for administration is used, and the grouping information of the experimental animals is shown in Table 8.\n(§1) Sensory block (hot plate paw withdrawal time): The sensory block of the rat is examined by a hot plate method, and the hot plate is heated to (56±1)° C., and one of the hind paws of the rat is placed on the hot plate, the other hind paw is in the laboratory room temperature condition, and the tested paw withdrawal time is observed and recorded. The average value of two to three times measured is recorded as a pain threshold. In order to avoid the damage of the experimental animal body, if the rat has no paw withdrawal in the hot plate experiment for more than 15 s, the paws should be removed from the hot plate, and the experimental result is recorded as 15 s. The time point for determining the paw withdrawal time of the hot plate is before administration, and 0.5 h, 1 h, 2 h, 4 h, 6 h, 8 h, 12 h, and 24 h after administration."}, "SD rats [2]": {"test_system": "SD rats", "assay": "Hot plate paw withdrawal time, rat sciatica model, intervertebral disc compression (SNL) (Example 32)", "format": "in vivo", "source_text": "Intervertebral disc compression (SNL): This model is a pathological form that simulates clinical disc herniation. The specific method is to remove the autogenous caudal intervertebral disc tissue (annulus fibrosus and nucleus pulposus) form the rats and place the caudal intervertebral disc tissue between the proximal nerve root of the L5 dorsal root ganglion and the lower vertebral body to directly compress the L5 nerve root, wherein damage to the L5 nerve root or dorsal root ganglion should be avoided during the operation. 3 to 15 days after the model is successful, rats develop significant hyperalgesia, so the administration time we chose is between 3 days and 15 days.\nQualified rats are randomly divided into 5 groups, 6 rats in each group, which are labeled as groups G1, G2, G3, G4 and G5, respectively. Administration by intramuscular injection around sciatic nerve is adopted, and the grouping information of the experimental animals is shown in Table 11.\nas §1, with “determining the withdrawal time” for “determining the paw withdrawal time”"}, "[3]": {"details": "0 h (after surgery, before administration), bupivacaine 8, conjugate 10/11/12 32/24/48 mg/kg"}}}
{"smiles": "CCCCN1CCCCC1C(=O)Nc1c(C)cccc1C", "note": "(centres unmarked) [bupivacaine]", "values": [{"measurement": "hot plate paw withdrawal time", "setting": "SD rats [1]; [3]", "value": 1.02, "unit": "s"}, {"measurement": "hot plate paw withdrawal time", "setting": "SD rats [1]; 0.5 h after plantar subcutaneous injection, bupivacaine 8, conjugate 10/11/12 32/24/48 mg/kg", "value": 7.21, "unit": "s"}, {"measurement": "hot plate paw withdrawal time", "setting": "SD rats [1]; 1 h after plantar subcutaneous injection, bupivacaine 8, conjugate 10/11/12 32/24/48 mg/kg", "value": 6.91, "unit": "s"}, {"measurement": "hot plate paw withdrawal time", "setting": "SD rats [1]; 2 h after plantar subcutaneous injection, bupivacaine 8, conjugate 10/11/12 32/24/48 mg/kg", "value": 1.30, "unit": "s"}, {"measurement": "hot plate paw withdrawal time", "setting": "SD rats [1]; 4 h after plantar subcutaneous injection, bupivacaine 8, conjugate 10/11/12 32/24/48 mg/kg", "value": 1.51, "unit": "s"}, {"measurement": "hot plate paw withdrawal time", "setting": "SD rats [1]; 6 h after plantar subcutaneous injection, bupivacaine 8, conjugate 10/11/12 32/24/48 mg/kg", "value": 1.32, "unit": "s"}, {"measurement": "hot plate paw withdrawal time", "setting": "SD rats [1]; 8 h after plantar subcutaneous injection, bupivacaine 8, conjugate 10/11/12 32/24/48 mg/kg", "value": 2.41, "unit": "s"}, {"measurement": "hot plate paw withdrawal time", "setting": "SD rats [1]; 12 h after plantar subcutaneous injection, bupivacaine 8, conjugate 10/11/12 32/24/48 mg/kg", "value": 1.41, "unit": "s"}, {"measurement": "hot plate paw withdrawal time", "setting": "SD rats [1]; 24 h after plantar subcutaneous injection, bupivacaine 8, conjugate 10/11/12 32/24/48 mg/kg", "value": 1.45, "unit": "s"}, {"measurement": "hot plate paw withdrawal time", "setting": "SD rats [1]; base value before surgery, bupivacaine 8, conjugate 10/11/12 32/24/48 mg/kg (as bupivacaine)", "value": 4.70, "unit": "s"}, {"measurement": "hot plate paw withdrawal time", "setting": "SD rats [2]; [3]", "value": 2.28, "unit": "s"}, {"measurement": "hot plate paw withdrawal time", "setting": "SD rats [2]; 0.5 h after intramuscular injection around sciatic nerve, bupivacaine 8, conjugate 10/11/12 32/24/48 mg/kg", "value": 7.39, "unit": "s"}, {"measurement": "hot plate paw withdrawal time", "setting": "SD rats [2]; 1 h after intramuscular injection around sciatic nerve, bupivacaine 8, conjugate 10/11/12 32/24/48 mg/kg", "value": 9.22, "unit": "s"}, {"measurement": "hot plate paw withdrawal time", "setting": "SD rats [2]; 2 h after intramuscular injection around sciatic nerve, bupivacaine 8, conjugate 10/11/12 32/24/48 mg/kg", "value": 2.81, "unit": "s"}, {"measurement": "hot plate paw withdrawal time", "setting": "SD rats [2]; 4 h after intramuscular injection around sciatic nerve, bupivacaine 8, conjugate 10/11/12 32/24/48 mg/kg", "value": 1.89, "unit": "s"}, {"measurement": "hot plate paw withdrawal time", "setting": "SD rats [2]; 6 h after intramuscular injection around sciatic nerve, bupivacaine 8, conjugate 10/11/12 32/24/48 mg/kg", "value": 1.78, "unit": "s"}, {"measurement": "hot plate paw withdrawal time", "setting": "SD rats [2]; 8 h after intramuscular injection around sciatic nerve, bupivacaine 8, conjugate 10/11/12 32/24/48 mg/kg", "value": 1.95, "unit": "s"}, {"measurement": "hot plate paw withdrawal time", "setting": "SD rats [2]; 12 h after intramuscular injection around sciatic nerve, bupivacaine 8, conjugate 10/11/12 32/24/48 mg/kg", "value": 2.43, "unit": "s"}, {"measurement": "hot plate paw withdrawal time", "setting": "SD rats [2]; 24 h after intramuscular injection around sciatic nerve, bupivacaine 8, conjugate 10/11/12 32/24/48 mg/kg", "value": 1.72, "unit": "s"}, {"measurement": "hot plate paw withdrawal time", "setting": "SD rats [2]; before surgery, bupivacaine 8, conjugate 10/11/12 32/24/48 mg/kg (as bupivacaine)", "value": 5.40, "unit": "s"}]}
